Test results published in ChEMBL document CHEMBL5042504 (J Med Chem, 2022).
Each block holds one compound with its values, some of them ahead of it. Active and inactive are the calls of the source. The calls are words filed in the database; no cut-off is given here.

Legend:
[1] = tested on: MV4-11; experiment: cells; settings: Homo sapiens, MV4-11, 48 h
Description: Antiproliferative activity against human MV4-11 AML cells assessed as cell viability measured after 48 hrs by multiplate reader method

[2] = target: T1, Histone deacetylase 1 (Homo sapiens, UniProt Q13547); experiment: Inhibition of human recombinant HDAC1 using Boc-Lys(acetyl)-AMC substrate incubated for 2 hrs by fluorescence based assay
[3] = target: T2, Histone deacetylase 3 (Homo sapiens, UniProt O15379); experiment: Inhibition of human recombinant HDAC3 using Boc-Lys(acetyl)-AMC substrate incubated for 2 hrs by fluorescence based assay
[4] = target: Histone deacetylase 2 (Homo sapiens, UniProt Q92769); experiment: Inhibition of human recombinant HDAC2 using Boc-Lys(acetyl)-AMC substrate incubated for 2 hrs by fluorescence based assay
[5] = Cmax in CD-1 mouse at 20 mg/kg, po measured upto 24 hrs; type: ADME, organism-based; set-up: route oral, dose 20 mg/kg, time <=24; settings: CD-1, mouse, in vivo, read-out: Cmax
[6] = Half life in CD-1 mouse at 5 mg/kg, iv measured upto 24 hrs; type: ADME, organism-based; settings: in vivo
[7] = Half life in CD-1 mouse at 20 mg/kg, po measured upto 24 hrs; type: ADME, organism-based; settings: in vivo
[8] = Oral bioavailability in CD-1 mouse at 20 mg/kg measured upto 24 hrs; type: ADME, organism-based; settings: in vivo
[9] = tested on: MV4-11; experiment: Down regulation of p21 expression in human MV4-11 cells at 200 nM measured after 24 hrs by Western blot analysis; type: functional, cell-based
[10] = tested on: MV4-11; experiment: Induction of apoptosis in human wt-p53 MV4-11 cells assessed as apoptotic cells at 500 nM measured after 24 hrs by FITC Annexin V/propidium iodide staining based flow cytometry (reference value: 9.14%); type: functional
[11] = tested on: HL-60; experiment: Induction of apoptosis in human p53 null HL-60 cells assessed as […] at 200 nM measured after 24 hrs by FITC Annexin V/propidium iodide staining based flow cytometry (reference value: 20.55%); type: functional; settings: read-out: Activity
[12] = tested on: HL-60; experiment: Induction of apoptosis in human p53 null HL-60 cells assessed as […] at 500 nM measured after 24 hrs by FITC Annexin V/propidium iodide staining based flow cytometry (reference value: 20.55%); type: functional; settings: read-out: Activity
[13] = tested on: MV4-11; experiment: Cell cycle arrest in human […] MV4-11 cells assessed as accumulation at G2/M-phase at 500 nM measured after 24 hrs realtive to control; type: functional, cell-based
[14] = tested on: HL-60; experiment: Cell cycle arrest in human […] HL60 cells assessed as accumulation at G2/M-phase at 500 nM measured after 24 hrs realtive to control; type: functional, cell-based
[15] = Antitumor activity against human MV4-11 cells xenografted in BALB/c mouse assessed as tumor growth inhibition at 2 to 4 mg/kg, po administered for 24 days; type: functional; settings: dose 2-4 mg/kg, time 24 day
[16] = tested on: MV4-11; experiment: Antitumor activity against human MV4-11 cells xenografted in BALB/c mouse assessed as inhibition of tumor growth at single administration for 4 mg/kg, po incubated for 0.5 to 8 hrs; type: functional, organism-based; settings: time 0.5-8 hrs
[17] = Drug uptake in BALB/c mouse xenografted with human AML MV4-11 cells assessed as tumor tissue at 4mg/kg, po measured after 0.5 to 6 hrs by LC-MS/MS; type: ADME, organism-based; settings: in vivo, time 0.5-6 hrs
[18] = Plasma concentration in BALB/c mouse xenografted with human AML MV4-11 cells at 4 mg/kg, po; type: ADME, organism-based; settings: in vivo
[19] = Plasma concentration in BALB/c mouse xenografted with human AML MV4-11 cells at 4 mg/kg, ip; type: ADME, organism-based; settings: in vivo
[20] = target: T1, Histone deacetylase 1; experiment: Mixed type inhibition of human HDAC1 (unknown origin) by Lineweaver-Burk plot analysis
[21] = target: T2, Histone deacetylase 3; experiment: Non competitive type inhibition of human HDAC3 (unknown origin) by Lineweaver-Burk plot analysis
[22] = target: T1, Histone deacetylase 1; experiment: Inhibition of HDAC1 (unknown origin)preincubated upto 2 hrs by fluorescence based assay; settings: time hrs <=2
[23] = target: T2, Histone deacetylase 3; experiment: Inhibition of HDAC3(unknown origin) preincubated upto 2 hrs by fluorescence based assay; settings: time hrs <=2
[24] = tested on: MV4-11; experiment: Antitumor activity against human MV4-11 cells xenografted in balb/c mouse assessed as accumulation of AcHH3 protein level at 4 mg/kg, po measured after 2 hrs; type: functional, organism-based
[25] = Drug distribution in BALB/c mouse spleen measured at 4 mg/kg, po or ip after 0.5 hrs; type: ADME, organism-based; settings: in vivo
[26] = Drug distribution in BALB/c mouse liver measured at 4 mg/kg, po or ip after 0.5 hrs after 0.5 hrs; type: ADME, organism-based; settings: in vivo
[27] = Drug distribution in BALB/c mouse gut measured at 4 mg/kg, po or ip after 0.5 hrs after 0.5 hrs; type: ADME, organism-based; settings: in vivo
[28] = Drug distribution in BALB/c mouse heart measured at 4 mg/kg, po or ip after 0.5 hrs after 0.5 hrs; type: ADME, organism-based; settings: in vivo
[29] = Drug distribution in BALB/c mouse lung measured at 4 mg/kg, po or ip after 0.5 hrs after 0.5 hrs; type: ADME, organism-based; settings: in vivo
[30] = Drug distribution in BALB/c mouse spleen measured at 4 mg/kg, po or ip after 2 to 8 hrs after 0.5 hrs; type: ADME, organism-based; settings: in vivo, time 2-8 hrs
[31] = Drug distribution in BALB/c mouse kidney measured at 4 mg/kg, po or ip after 2 to 8 hrs after 0.5 hrs; type: ADME, organism-based; settings: in vivo, time 2-8 hrs
[32] = Drug distribution in BALB/c mouse gut measured at 4 mg/kg, po or ip after 2 to 8 hrs after 0.5 hrs; type: ADME, organism-based; settings: in vivo, time 2-8 hrs
[33] = Drug distribution in BALB/c mouse lung measured at 4 mg/kg, po or ip after 2 to 8 hrs after 0.5 hrs; type: ADME, organism-based; settings: in vivo, time 2-8 hrs
[34] = Toxicity in BALB/c mouse assessed as induction of pathological changes in liver by H and E staining based analysis; type: tissue-based; settings: in vivo
[35] = Toxicity in BALB/c mouse assessed as induction of pathological changes in lung by H and E staining based analysis; type: tissue-based; settings: in vivo
[36] = Toxicity in BALB/c mouse assessed as induction of pathological changes in spleen by H and E staining based analysis; type: tissue-based; settings: in vivo
[37] = Antitumor activity against human MV4-11 cells xenografted in BALB/c mouse assessed as growth inhibition at 2 to 4 mg/kg, po ad; type: functional; settings: dose 2-4 mg/kg, time 24 day
[38] = Drug distribution in tumor of BALB/c mouse xenografted with human MV4-11 cells assessed as measured after 0.5 hrs; type: ADME; settings: read-out: Ct
[39] = Drug distribution in tumor of BALB/c mouse xenografted with human MV4-11 cells assessed as measured after 2 hrs; type: ADME; settings: read-out: Ct
[40] = Drug distribution in tumor of BALB/c mouse xenografted with human MV4-11 cells assessed as measured after 8 hrs; type: ADME; settings: read-out: Drug uptake

T2 sequence (O15379 whole entry): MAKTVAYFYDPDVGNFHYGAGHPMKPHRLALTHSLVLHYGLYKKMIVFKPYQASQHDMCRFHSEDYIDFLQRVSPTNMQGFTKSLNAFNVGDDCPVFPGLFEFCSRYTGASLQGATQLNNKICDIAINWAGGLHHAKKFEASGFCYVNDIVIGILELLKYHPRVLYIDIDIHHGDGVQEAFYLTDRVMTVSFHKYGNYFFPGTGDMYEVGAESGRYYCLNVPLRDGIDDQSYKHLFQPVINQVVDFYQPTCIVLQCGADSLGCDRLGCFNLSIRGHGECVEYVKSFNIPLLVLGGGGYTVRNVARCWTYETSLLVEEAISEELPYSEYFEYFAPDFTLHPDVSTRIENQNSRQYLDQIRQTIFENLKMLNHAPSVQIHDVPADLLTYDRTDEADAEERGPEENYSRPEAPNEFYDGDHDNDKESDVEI
T1 sequence (Q13547 whole entry): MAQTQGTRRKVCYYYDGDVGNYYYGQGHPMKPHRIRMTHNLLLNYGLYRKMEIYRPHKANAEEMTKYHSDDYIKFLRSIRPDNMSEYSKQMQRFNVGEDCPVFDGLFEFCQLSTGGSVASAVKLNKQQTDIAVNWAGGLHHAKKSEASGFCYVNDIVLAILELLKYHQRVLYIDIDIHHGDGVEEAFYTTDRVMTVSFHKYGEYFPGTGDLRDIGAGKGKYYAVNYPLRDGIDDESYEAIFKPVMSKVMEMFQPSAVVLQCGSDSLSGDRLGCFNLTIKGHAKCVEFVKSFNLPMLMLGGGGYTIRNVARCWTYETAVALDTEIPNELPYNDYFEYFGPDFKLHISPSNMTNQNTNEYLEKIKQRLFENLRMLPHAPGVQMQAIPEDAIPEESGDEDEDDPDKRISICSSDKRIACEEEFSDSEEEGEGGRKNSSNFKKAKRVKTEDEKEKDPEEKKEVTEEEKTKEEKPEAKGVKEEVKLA
Histone deacetylase 2, sequence (Q92769 whole entry): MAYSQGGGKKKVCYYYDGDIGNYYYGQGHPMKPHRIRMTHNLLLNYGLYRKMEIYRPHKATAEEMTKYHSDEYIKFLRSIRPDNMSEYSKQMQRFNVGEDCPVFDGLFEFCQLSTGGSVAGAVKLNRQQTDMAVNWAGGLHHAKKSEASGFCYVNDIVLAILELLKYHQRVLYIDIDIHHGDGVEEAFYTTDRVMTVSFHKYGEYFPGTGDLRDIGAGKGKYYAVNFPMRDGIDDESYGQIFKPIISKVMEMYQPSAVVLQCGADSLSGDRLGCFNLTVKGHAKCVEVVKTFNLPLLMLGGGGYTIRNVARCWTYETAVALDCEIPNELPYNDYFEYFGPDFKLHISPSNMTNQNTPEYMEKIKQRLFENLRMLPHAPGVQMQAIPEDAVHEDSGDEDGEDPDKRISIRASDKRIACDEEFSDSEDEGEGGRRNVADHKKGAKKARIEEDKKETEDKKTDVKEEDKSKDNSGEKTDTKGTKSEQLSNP

IC50 [1]: 36.4 nM
SMILES: CCCNNC(=O)c1ccc(CNC(=O)/C=C/c2ccccc2)cc1

IC50 [2]: 3.01 nM
IC50 [3]: 0.44 nM
IC50 [4]: 18.5 nM
Cmax [5]: 38800 ng/mL
half-life [6]: 6.75 h
half-life [7]: 2.58 h
F [8]: 112%
Drug uptake [17]: Active
Drug uptake [18]: Active
Drug uptake [19]: Active
IC50 [20]: 1.5 nM
IC50 [21]: 0.56 nM
Activity [22]: Active
Activity [23]: Active
Drug uptake [25]: Active
Drug uptake [26]: Active
Drug uptake [27]: Active
Drug uptake [28]: Active
Drug uptake [29]: Active
Drug uptake [30]: Active
Drug uptake [31]: Active
Drug uptake [32]: Active
Drug uptake [33]: Active
concentration at 0.5 h [38]: 1130 ng/g
concentration at 2 h [39]: 882 ng/g
concentration at 8 h [40]: 151 ng/g
SMILES: CCCNNC(=O)c1ccc(CNC(=O)c2cc3ccccc3[nH]2)cc1
Activity [9]: Active
Activity [10]: 88.1%
viability at 0.2 µM [11]: 32.6%
viability at 0.5 µM [12]: 44.8%
Activity [13]: Active
Activity [14]: Active
TGI [15]: 78.9%
Activity [16]: Active
Activity [24]: Active
Activity [34]: Non-Toxic
Activity [35]: Non-Toxic
Activity [36]: Non-Toxic
T/C [37]: 22.2%
